Reference: patent US20260035750A1, “TRANSCRIPTIONAL REGULATORS OF THE TEAD FAMILY” (Sanofi, priority 2022, published 2026)
Entries after “also recorded” stand apart in the source; their conditions may differ.

Experiments:
[1] = system: NCI-H226 cells; assay: In vivo efficacy in subcutaneous NCI-H226 xenografts in SCID mice; conditions: NCI-H226 xenograft
Method: Female CB17/Icr-Prkdc^scid/IcrIcoCrl mice (6-8 weeks old) were bred at Charles River (Les Oncins, France), housed in Sanofi AAALAC accredited animal facilities, and were provided with irradiated food and filtered water ad libitum.
(§1) In vivo efficacy studies of the K-975 compound were performed in SCID mice inoculated subcutaneously into the right flank with 3×10^6 MSTO-211H or NCI-H226 cells. Mice bearing around 200 mm3 subcutaneous MSTO-211H tumors or 150 mm3 subcutaneous NCI-H226 tumors were randomly assigned to […] of 8 mice/group and treated with either vehicle or K-975 compound twice daily at 30, 100, and 200 mg/kg for 18 consecutive days. Tumor perpendicular diameters were measured twice a week with a caliper, and tumor volume (V) was calculated according to the following equation: V (mm3)=(d2 (mm2)×D (mm))/2, where d is the smallest, and D the largest perpendicular tumor diameters.
The same type of events was observed when SCID mice implanted with malignant mesothelioma parental NCI-H226 cells were treated with 200 mg/kg BID of the benchmark TEAD-inhibitor K-975 (Kaneda A et al. Am J Cancer Res. 2020; 10(12):4399-4415) for 17 consecutive days (FIG. 5). […] The TEAD-500 score correlates, therefore, with tumor behavior under treatment and can be used as a marker of the pharmacodynamics or efficacy of a drug.

[2] = system: TEAD; assay: TEAD-500 score (TEAD-dependent transcription) in NCI-H226 cells grown in vitro; type: cell-based, human; conditions: NCI-H226 malignant mesothelioma cells in vitro, treated for 24 hours
Text: (§2) TEAD-dependent transcription was scored in single samples as the difference Rp-Rn, where Rp is the mean fractional rank of the positive TEAD-effectors, and Rn, that of the negative effectors.
We considered the most abundant transcript of a gene as the representative of the expression of the gene. We, therefore, retain the expression level of the major transcript (maximum level-value per gene and sample, level values may be expression-array signals, RNA sequencing counts, fragments per kilobase per million counts (FPKM), transcripts per million (TPM), or whatever other metric is conveniently used) and discarded the values of all other transcripts. The maximum expression levels of the genes were transformed into fractional ranks by dividing with the maximum expression value of all genes (most abundant gene) observed within a sample. No other normalization is required.
All cell lines were grown at 37° C. under five percent CO2. MSTO-211H (#CRL-2081), NCI-H226 (#CRL-5826), NCI-H2052 (#CRL-5915), NCI-H28 (#CRL-5820), and HCT116 (#CCL-247) were purchased from the American Type Culture Collection (ATCC, Manassas, VA, USA) and cultured according to supplier's recommendation. […]
Fresh tumors were preserved in RNAlater (Thermo Fisher) and frozen at […]. […] The RNA concentration and purity were evaluated with an ND-1000 spectrophotometer (NanoDrop, Thermo Fisher). […]

[3] = system: TEAD-dependent transcription; assay: TEAD-500 score as pharmacodynamic marker in NCI-H226 xenograft tumors; type: in vivo; conditions: SCID mice, 200 mg/kg BID, in 24 h, sufficient for tumor regression
Method: as §2, §1
Fresh tumors were preserved in RNAlater (Thermo Fisher) and frozen at […]. Copurification of miRNA and total RNA was performed using a miRNeasy Mini Kit (QIAGEN, 217004). The RNA concentration and purity were evaluated with an ND-1000 spectrophotometer (NanoDrop, Thermo Fisher). Quality metrics are the RNA Integrity Number (RIN) and DV200 value (% of RNA fragments with a length≥200 nt). 100 ng total RNA per sample was used as input material for the library preparation. […]

[4] = system: CYR61; assay: CYR61 (CCN1) marker of TEAD activity, RNA and protein (ELISA) level, in NCI-H226 cells; type: cell-based, human; conditions: NCI-H226 cells in vitro, treated for 24 hours
Method: The latter protein markers were measured by ELISA assays. Cell lysates were diluted 1/500 in cell lysis buffer. A minimum of four biologic replicates were analyzed for each model. In the reading plate, standards and samples are run in duplicate. hCYR61 was assessed using the human Cyr61 Quantikine™ Colorimetric Sandwich ELISA Kit (R&D Systems, Minneapolis, MN). Diluted lysates were processed and analyzed as described in the manufacturer's instructions. Absorbance values were read using a microplate reader set to 450 nm.
So did the RNA and protein levels of the classical secreted marker of Hippo pathway activity, CYR61 (FIG. 3C).

In the case of `C=CC(=O)Nc1ccc(C)c(Oc2ccc(Cl)cc2)c1` [K-975], the “tumor behavior under treatment” value ([1]; 30 mg/kg BID) is reported as “inactive”, the “tumor behavior under treatment” value ([1]; 100 mg/kg BID) is reported as “almost tumor stasis” and the ΔT/ΔC ([1]; 100 mg/kg BID) is reported as 12. For the same compound, the “tumor behavior under treatment” value ([1]; 200 mg/kg BID, 17 consecutive days) was “tumor regression”, the TEAD-500 score [2] was “Dose-dependent regression; also recorded: regressed in a dose-dependent manner” and the “inhibition of the TEAD-dependent transcription (TEAD-500 score)” value [3] was 30-40%. For the same compound, the “RNA level of CYR61 (CCN1)” value [4] was “inhibition; also recorded: regressed in a dose-dependent manner” and the “protein level of CYR61 (CCN1)” value [4] was “inhibition; also recorded: regressed in a dose-dependent manner”.
